We go through 1 sequence from patent US20240067685A1, “HIDDEN ANTIBIOTICS IN THE HUMAN PROTEOME” (priority 2022, published 2024).

No end group written: not given here.

In one data set the test system is A. baumannii ATCC 17878. Kind of data set: microbe, parasite or virus in culture. The conditions noted are these: ATCC 17878. As for the experimental part: (§1) Antimicrobial activity. The antimicrobial activity of ApoB-derived encrypted peptides was assessed against a panel of skin pathogens, such as S. epidermidis ATCC 35984, S. aureus ATCC 12600, A. baumannii ATCC 17878, K. pneumoniae ATCC 700603, S. aureus MRSA (WK7-2), E. faecalis ATCC 29212 and P. aeruginosa PAO1 by using the broth microdilution method. ^20 Bacteria were grown to mid-logarithmic phase in MHB at 37° C. […] Following incubation over-night, each sample was diluted, plated on TSA, and incubated at 37° C. for 24 h to count the number of colonies. All experiments were performed in three independent replicates.

The test system of data set [1] is K. pneumoniae ATCC 700603. Kind of data set: microbe, parasite or virus in culture. The conditions noted are these: ATCC 700603. As for the experimental part:
as §1

For the next data set, the system named is S. aureus ATCC 12600. In words: microbe, parasite or virus in culture. The following applies: ATCC 12600. As for the experimental part:
as §1

Data set [2] deals with S. epidermidis ATCC 35984. In words: microbe, parasite or virus in culture. The conditions noted are these: ATCC 35984. As for the experimental part: as §1
The subject of the next data set is E. faecalis ATCC 29212. As to the method: as §1
Data set [3] deals with P. aeruginosa wild-type PAO1. As for the experimental part:
as §1

For a further data set, the system named is S. aureus MRSA (WKZ-2). As for the experimental part:
as §1

Data set [4] is described as follows: in vitro. It is filed as cell-based. The conditions noted are these: human. As to the method:
Cytokine-mediated immunogenicity is one potential side effect of peptide therapeutics as it can lead to cytotoxic effects and allergic responses. ^21,45 To determine whether the peptides exerted any toxic effects against eukaryotic cells and to verify their biocompatibility towards skin cell cultures, dose-response and time-course 3-(4, 5-dimethylthiazolyl-2)-2,5-diphenyltetrazolium bromide (MTT) and lactate dehydrogenase (LDH) cytotoxicity assays were performed against both human dermal fibroblasts (HDF) and human epidermoid carcinoma cell (A431) lines. Due to their cationic nature, most AMPs preferentially interact with negatively charged membranes, such as those of bacteria. […] To evaluate whether peptides exert cytostatic or cytotoxic effects through membrane damage, LDH release in culture medium was detected as a biomarker of membrane damage. ^50 Thus, human dermal fibroblasts (HDF) and human epidermoid carcinoma cells (A431) were treated with each peptide at a concentration of 10 and 20 μmol L^−1 for 72 h. No significant LDH release was detected, thus indicating no damage to eukaryotic cell membranes caused by exposure to the peptides (FIG. 7C).
Eukaryotic cell culture and cytotoxicity assays. […] Cell viability was expressed as means of the percentage values compared to control untreated cells. […]

Data set [5] concerns Acinetobacter baumannii ATCC 17878. It is filed as cell-based. The following applies: ATCC 17878, 16 h. As for the experimental part: (§2) Antimicrobial activity of peptides upon pre-incubation in 10% serum. The antimicrobial activity of r(P)ApoBS^Pro and (ri)-r(P)ApoBS^Pro was evaluated against four bacterial strains upon pre-incubation in 10% FBS (fetal bovine serum, Microgem Lab, Cat. 51860, Italy). All the peptides were incubated for 1 h or 16 h in serum at 37° C. (water bath) prior to MIC value determination by standard protocols. ^20 Experiments were carried out in triplicate for each peptide.

The subject of data set [6] is Klebsiella pneumoniae ATCC 700603. The class given is cell-based. The following applies: ATCC 700603, 16 h. As for the experimental part:
as §2

Data set [7] deals with Staphylococcus aureus ATCC 12600. It is filed as cell-based. The conditions noted are these: ATCC 12600, 16 h. As for the experimental part: as §2
Data set [8] is described as follows: in vitro. The conditions noted are these: 25% fetal bovine serum. As to the method:
To determine its proteolytic stability, it was assessed whether (ri)-r(P)ApoBS^Pro was less susceptible to serum proteases compared to its parent peptide r(P)ApoBS^Pro.
Stability assay. The resistance to enzymatic degradation assay was performed according to the method described by Powell et al. ^72 Briefly, peptides at 2 mg mL^−1 were exposed to a solution of 25% fetal bovine serum in water. Aliquots were collected after 0.5, 1, 2, and 4 h and 10 μL of trifluoroacetic acid was added to them while the samples were on ice for 10 min. The enzymatic degradation of peptides was followed by reverse-phase high performance liquid chromatography coupled to mass spectrometry (RP-HPLC/ESI-MS). The percentage of remaining peptide was calculated by integrating the area under the curve related to the peptide at time point zero.
where AUCX is the area under the curve of the peak related to the peptide after t h (t=0.5, 1, 2, and 4 h), and AUC0 is the area under the curve of the peak related to the peptide at the beginning of the experiment. Three independent experimental replicates were performed, as previously described. ^73

Turning to “PHVALKPGKLKFIIPSPKRPVKLLSG [r(P)ApoBS^Pro]”, the MIC in the data set with A. baumannii ATCC 17878 is 5 µmol/L; in data set [1], 5 µmol/L; in the data set on S. aureus ATCC 12600, 20 µmol/L; in [2], 10 µmol/L; against E. faecalis ATCC 29212 it was 20 µmol/L; in data set [3], 10 µmol/L. The same sequence yielded an MIC against S. aureus MRSA (WKZ-2) of 10 µmol/L. For the same sequence, the cytotoxicity at 24 h in the data set “in vitro [4]” came to 30%. The “MIC upon incubation in serum” value in [5], in data set [6] and in data set [7] was over 80 µmol/L throughout. Further, the “stability in the presence of serum” value in “in vitro [8]” is “degraded within minutes”. Moreover, the “exposure time after which peptide degraded” value in the data set “in vitro [8]” (RP-HPLC/ESI-MS) stood at 30 min.
